Reference: patent publication US10821115B2, “Compounds that inhibit Mcl-1 protein” (priority 2017, dated 2020)
Like-named read-outs stand apart in the source and are kept apart here.

Experiments:
[1] = target: recombinant human Mcl-1 (residues 171-327) / Bim interaction (Homo sapiens (Human), UniProt Q07820); assay: biochemical; assay type: binding; details: read-out: Mcl-1 HTRF IC50
[2] = system: human multiple myeloma cell line, OPM-2; assay: Cell viability assay (OPM-2 10 FBS), CellTiter-Glo; assay type: cell-based; details: Homo sapiens, OPM-2, 16 h, read-out: OPM-2 10% FBS IC50 IP, OPM-2 cells, 10% FBS, 16 h, CellTiter-Glo
In short: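 Steps: plate cells at 3000/well in 10% FBS growth medium, add serially diluted compound, incubate 16 h at 37 °C with 5% CO2, add detection reagent and read luminescence after 25 min. A 4-parameter logistic model gives IC50.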

[3] = TR-FRET, Mcl-1(171-327) / biotin-Bim (51-76)

recombinant human Mcl-1 (residues 171-327) / Bim interaction, sequence (Q07820 171-327): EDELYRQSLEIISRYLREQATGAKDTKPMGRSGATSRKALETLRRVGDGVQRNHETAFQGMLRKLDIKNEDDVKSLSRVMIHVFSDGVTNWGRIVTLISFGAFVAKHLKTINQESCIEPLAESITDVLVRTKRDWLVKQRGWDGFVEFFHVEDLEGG

Row | SMILES | IC50 [1, 3] [nM] | IC50 [2] [nM] | IC50 [1] [nM]
1 | C[C@@H]1[C@@H](C)CCC[C@@](O)([C@@H]2OCCN(C)C2=O)[C@@H]2CC[C@H]2CN2C[C@@]3(CCCc4cc(Cl)ccc43)COc3ccc(cc32)C(=O)NS1(=O)=O [Example 100205, (1S,3′R,6′R,7′S,11′S,12′R)-6-chloro-7′-hydroxy-11′,12′-dimethyl-7′-((2S)-4-methyl-3-oxo-2-morpholinyl)-3,4-dihydro-2H,15′H-spiro[naphthalene-1,22′-[20]oxa[13]thia[1,14]diazatetracyclo [14.7.2.0~3,6~.0~19,24~]pentacosa[16,18,24]trien]-15′-one 13′,13′-dioxide] | 0.206 | 68 | –
2 | CC[C@@]1(O)/C=C/C[C@H](C)[C@@H](C)S(=O)(=O)NC(=O)c2ccc3c(c2)N(C[C@@H]2CC[C@H]21)C[C@@]1(CCCc2cc(Cl)ccc21)CO3 [Example 100206, (1S,3′R,6′R,7′R,8′E,11′S,12′R)-6-chloro-7′-ethyl-7′-hydroxy-11′,12′-dimethyl-3,4-dihydro-2H,15′H-spiro[naphthalene-1,22′-[20]oxa[13]thia[1,14]diazatetracyclo [14.7.2.0~3,6~.0~19,24~]pentacosa[8,16,18,24]tetraen]-15′-one 13′,13′-dioxide] | 1.26 | 1750 | –
3 | CC[C@]1(O)/C=C/C[C@H](C)[C@@H](C)S(=O)(=O)NC(=O)c2ccc3c(c2)N(C[C@@H]2CC[C@H]21)C[C@@]1(CCCc2cc(Cl)ccc21)CO3 [Example 100207, (1S,3′R,6′R,7′S,8′E,11′S,12′R)-6-chloro-7′-ethyl-7′-hydroxy-11′,12′-dimethyl-3,4-dihydro-2H,15′H-spiro[naphthalene-1,22′-[20]oxa[13]thia[1,14]diazatetracyclo [14.7.2.0~3,6~.0~19,24~]pentacosa[8,16,18,24]tetraen]-15′-one 13′,13′-dioxide] | 0.141 | 215 | –
4 | CC(C)[C@]1(O)/C=C/C[C@H](C)[C@@H](C)S(=O)(=O)NC(=O)c2ccc3c(c2)N(C[C@@H]2CC[C@H]21)C[C@@]1(CCCc2cc(Cl)ccc21)CO3 [Example 100208, (1S,3′R,6′R,7′S,8′E,11′S,12′R)-6-chloro-7′-hydroxy-11′,12′-dimethyl-7′-(2-propanyl)-3,4-dihydro-2H,15′H-spiro[naphthalene-1,22′-[20]oxa[13]thia[1,14]diazatetracyclo [14.7.2.0~3,6~.0~19,24~]pentacosa[8,16,18,24]tetraen]-15′-one 13′,13′-dioxide] | 0.431 | 318 | –
5 | CCC[C@@]1(O)/C=C/C[C@H](C)[C@@H](C)S(=O)(=O)NC(=O)c2ccc3c(c2)N(C[C@@H]2CC[C@H]21)C[C@@]1(CCCc2cc(Cl)ccc21)CO3 [Example 100209, (1S,3′R,6′R,7′R,8′E,11′S,12′R)-6-chloro-7′-hydroxy-11′,12′-dimethyl-7′-propyl-3,4-dihydro-2H,15′H-spiro[naphthalene-1,22′-[20]oxa[13]thia[1,14]diazatetracyclo [14.7.2.0~3,6~.0~19,24~]pentacosa[8,16,18,24]tetraen]-15′-one 13′,13′-dioxide] | – | 3380 | 2.67
6 | CC(C)[C@@]1(O)/C=C/C[C@H](C)[C@@H](C)S(=O)(=O)NC(=O)c2ccc3c(c2)N(C[C@@H]2CC[C@H]21)C[C@@]1(CCCc2cc(Cl)ccc21)CO3 [Example 100210, (1S,3′R,6′R,7′R,8′E,11′S,12′R)-6-chloro-7′-hydroxy-11′,12′-dimethyl-7′-(2-propanyl)-3,4-dihydro-2H,15′H-spiro[naphthalene-1,22′-[20]oxa[13]thia[1,14]diazatetracyclo [14.7.2.0~3,6~.0~19,24~]pentacosa[8,16,18,24]tetraen]-15′-one 13′,13′-dioxide] | 3.47 | 3360 | –
7 | C[C@@H]1[C@@H](C)C/C=C/[C@](O)(C2CC2)[C@@H]2CC[C@H]2CN2C[C@@]3(CCCc4cc(Cl)ccc43)COc3ccc(cc32)C(=O)NS1(=O)=O [Example 100213, (1S,3′R,6′R,7′R,8′E,11′S,12′R)-6-chloro-7′-cyclopropyl-7′-hydroxy-11′,12′-dimethyl-3,4-dihydro-2H,15′H-spiro[naphthalene-1,22′-[20]oxa[13]thia[1,14]diazatetracyclo [14.7.2.0~3,6~.0~19,24~]pentacosa[8,16,18,24]tetraen]-15′-one 13′,13′-dioxide] | 2.84 | 2020 | –
8 | C[C@@H]1[C@@H](C)C/C=C/[C@@](O)(C2CC2)[C@@H]2CC[C@H]2CN2C[C@@]3(CCCc4cc(Cl)ccc43)COc3ccc(cc32)C(=O)NS1(=O)=O [Example 100214, (1S,3′R,6′R,7′S,8′E,11′S,12′R)-6-chloro-7′-cyclopropyl-7′-hydroxy-11′,12′-dimethyl-3,4-dihydro-2H,15′H-spiro[naphthalene-1,22′-[20]oxa[13]thia[1,14]diazatetracyclo [14.7.2.0~3,6~.0~19,24~]pentacosa[8,16,18,24]tetraen]-15′-one 13′,13′-dioxide] | 0.143 | 95 | –
9 | CO[C@]1(C)/C=C/C[C@H](C)[C@@H](C)S(=O)(=O)NC(=O)c2ccc3c(c2)N(C[C@@H]2CC[C@H]21)C[C@@]1(CCCc2cc(Cl)ccc21)CO3 [Example 100215, (1S,3′R,6′R,7′R,8′E,11′S,12′R)-6-chloro-7′-methoxy-7′,11′,12′-trimethyl-3,4-dihydro-2H,15′H-spiro[naphthalene-1,22′-[20]oxa[13]thia[1,14]diazatetracyclo [14.7.2.0~3,6~.0~19,24~]pentacosa[8,16,18,24]tetraen]-15′-one 13′,13′-dioxide] | – | 1250 | 0.595
10 | C[C@@H]1[C@@H](C)CCC[C@]2(CC(N3CCN(C)CC3)=NO2)[C@@H]2CC[C@H]2CN2C[C@@]3(CCCc4cc(Cl)ccc43)COc3ccc(cc32)C(=O)NS1(=O)=O [Example 100216, (1S,3′R,6′R,7′S,11′S,12′R)-6-chloro-11′,12′-dimethyl-3″-(4-methyl-1-piperazinyl)-3,4-dihydro-2H,4″H,15′H-dispiro[naphthalene-1,22′-[20]oxa[13]thia[1,14]diazatetracyclo [14.7.2.0~3,6~.0~19,24~]pentacosa[16,18,24]triene-7′,5″-[1,2]oxazol]-15′-one 13′,13′-dioxide] | 0.311 | 374 | –
11 | CO[C@]1(CCO)/C=C/C[C@H](C)[C@@H](C)S(=O)(=O)NC(=O)c2ccc3c(c2)N(C[C@@H]2CC[C@H]21)C[C@@]1(CCCc2cc(Cl)ccc21)CO3 [Example 100217, (1S,3′R,6′R,7′R,8′E,11′S,12′R)-6-chloro-7′-(2-hydroxyethyl)-7′-methoxy-11′,12′-dimethyl-3,4-dihydro-2H,15′H-spiro[naphthalene-1,22′-[20]oxa[13]thia[1,14]diazatetracyclo [14.7.2.0~3,6~.0~19,24~]pentacosa[8,16,18,24]tetraen]-15′-one 13′,13′-dioxide] | 0.183 | 130 | –
12 | CO[C@@]1(CCO)/C=C/C[C@H](C)[C@@H](C)S(=O)(=O)NC(=O)c2ccc3c(c2)N(C[C@@H]2CC[C@H]21)C[C@@]1(CCCc2cc(Cl)ccc21)CO3 [Example 100218, (1S,3′R,6′R,7′S,8′E,11′S,12′R)-6-chloro-7′-(2-hydroxyethyl)-7′-methoxy-11′,12′-dimethyl-3,4-dihydro-2H,15′H-spiro[naphthalene-1,22′-[20]oxa[13]thia[1,14]diazatetracyclo [14.7.2.0~3,6~.0~19,24~]pentacosa[8,16,18,24]tetraen]-15′-one 13′,13′-dioxide] | 0.621 | 675 | –
13 | CO[C@@]1(CCO)/C=C/C[C@H](C)[C@@H](C)S(=O)(=O)N(C)C(=O)c2ccc3c(c2)N(C[C@@H]2CC[C@H]21)C[C@@]1(CCCc2cc(Cl)ccc21)CO3 [Example 100219, (1S,3′R,6′R,7′S,8′E,11′S,12′R)-6-chloro-7′-(2-hydroxyethyl)-7′-methoxy-11′,12′,14′-trimethyl-3,4-dihydro-2H,15′H-spiro[naphthalene-1,22′-[20]oxa[13]thia[1,14]diazatetracyclo [14.7.2.0~3,6~.0~19,24~]pentacosa[8,16,18,24]tetraen]-15′-one 13′,13′-dioxide] | 0.401 | 974 | –
14 | CC(C)C[C@@]1(O)/C=C/C[C@H](C)[C@@H](C)S(=O)(=O)NC(=O)c2ccc3c(c2)N(C[C@@H]2CC[C@H]21)C[C@@]1(CCCc2cc(Cl)ccc21)CO3 [Example 100220, (1S,3′R,6′R,7′R,8′E,11′S,12′R)-6-chloro-7′-hydroxy-11′,12′-dimethyl-7′-(2-methylpropyl)-3,4-dihydro-2H,15′H-spiro[naphthalene-1,22′-[20]oxa[13]thia[1,14]diazatetracyclo [14.7.2.0~3,6~.0~19,24~]pentacosa[8,16,18,24]tetraen]-15′-one 13′,13′-dioxide] | 7.42 | 6840 | –
15 | C[C@@H]1[C@@H](C)C/C=C/[C@](O)(c2ncnn2C)[C@@H]2CC[C@H]2CN2C[C@@]3(CCCc4cc(Cl)ccc43)COc3ccc(cc32)C(=O)NS1(=O)=O [Example 100221, (1S,3′R,6′R,7′R,8′E,11′S,12′R)-6-chloro-7′-hydroxy-11′,12′-dimethyl-7′-(1-methyl-1H-1,2,4-triazol-5-yl)-3,4-dihydro-2H,15′H-spiro[naphthalene-1,22′-[20]oxa[13]thia[1,14]diazatetracyclo [14.7.2.0~3,6~.0~19,24~]pentacosa[8,16,18,24]tetraen]-15′-one 13′,13′-dioxide] | 0.525 | 776 | –
16 | C[C@@H]1[C@@H](C)CCC[C@](O)(c2nccn2C)[C@@H]2CC[C@H]2CN2C[C@@]3(CCCc4cc(Cl)ccc43)COc3ccc(cc32)C(=O)NS1(=O)=O [Example 100223, (1S,3′R,6′R,7′R,11′S,12′R)-6-chloro-7′-hydroxy-11′,12′-dimethyl-7′-(1-methyl-1H-imidazol-2-yl)-3,4-dihydro-2H,15′H-spiro[naphthalene-1,22′-[20]oxa[13]thia[1,14]diazatetracyclo [14.7.2.0~3,6~.0~19,24~]pentacosa[16,18,24]trien]-15′-one 13′,13′-dioxide] | 1.41 | 2150 | –
